{"source": "patent US10952961B2", "about": "“Implants and constructs including hollow fibers” (priority 2015, dated 2021)", "key": {"[1]": {"assay": "Diffusivity of example drug molecules in water and in broad membrane pores", "assay_type": "physicochemical", "settings": "diffusivity within broad-pore membrane (HFHHP); unit not printed in this column, D is in cm^2/s", "source_text": "Assuming that the pore diameter essentially exceeds the molecule dimension, which is necessary for drug release to occur in any of the modes of drug release, Dm can be presented as product of three multipliers: diffusivity in water D, membrane porosity ε and tortuosity t0; Dm=Dεt0^−1. The maximal porosity is about 0.5. Taking into account the tortuosity t0=2, Dm˜0.25D. Vl has to be replaced by local interstitial velocity Vint. In turn, Vint can be specified as Vn(LB), when the condition 2Rlb>>Rf is valid and the fabric is placed at a small distance from LB. […] As to lm, having its value be small is desirable for the diffusion-dominated case.\n[formula] This yields, E=Pe^0.5. This equation estimate E from below, i.e., the real E is essentially larger. A larger Pe means a larger role of convection in comparison with diffusion. […] But the derived equation quantifies this observation. The diffusivity D depends on the water viscosity η and on the macromolecule radius r. This dependence is described by the Stokes-Einstein equation:\n[formula] where k is the Boltzman constant, T is absolute temperature. r increases with molecular weight (MW) and 100<MW<500 g/mole. This is not true for proteins and larger molecules.\nWith respect to broad pores of membrane in case of HFHHP, Dm≅εt0^−1D˜0.25D."}, "[2]": {"settings": "diffusivity in water; cited from earlier work"}, "[3]": {"tested_on": "Pseudomonas aeruginosa PAO1 Xen41", "assay": "Zone of inhibition (modified Kirby-Bauer) of drug-loaded hollow fibers", "assay_type": "cell-based", "settings": "drug-loaded polypropylene hollow fibers (saturated solution)", "procedure": "(§1) To assess the antimicrobial efficacy of drug loaded hollow fibers, we used a modified Kirby-Bauer assay where a zone of inhibition of bacterial growth was measured on a solid agar plate as is normally done in the field of microbiology. This model was used since it allowed us to capture the real time drug release from the hollow fibers and at the same time to represent a model of drug release into a soft tissue. […] Vancomycin was chosen for proof of principle with the hollow fibers devices because this antibiotic has precedent in being commonly used to combat S. aureus infection in orthopedic joint arthroplasties, where locally high concentrations are delivered by elution from both non-absorbable (polymethyl methacrylate, PMMA) and absorbable mineral cements. Ciprofloxacin was used since it is a broad spectrum antibiotic used to target Gram negative pathogens such as P. aeruginosa. In addition, water soluble fluorescein sodium was used as a model drug to assess the release of a hydrophilic water-soluble agent from the hollow fiber drug delivery system. All reagents were purchased from Sigma-Aldrich. P. aeruginosa and S. aureus are biofilm-forming pathogens commonly isolated from infected meshes and sutures, and the strains we have selected have been transformed with bioluminescent genes so that live biofilm development and activity can be tracked in real time using a photon counting camera (Xenogen IVIS imaging system, Alameda, Calif.).\n(§2) A lawn of bacteria was spread out onto an LB (Luria broth) agar plate. The plate was incubated at 5% CO2 at 37° C. for 18 hours for the first challenge. The fibers were then aseptically removed from the original plate and placed on a fresh lawn of bacteria on a new plate for the second challenge and incubated as before. Drug-free hollow fibers rinsed with isopropanol alone were used as controls. Experiments were repeated in triplicate. […] The fibers were then placed on a fresh plate and re-challenged. […]"}, "[4]": {"settings": "room temperature; cited from earlier work"}, "[5]": {"assay": "Saturated drug solutions in normal saline used to fill hollow fibers", "assay_type": "physicochemical", "quoted_text": "Pressure was applied on the syringe plunger until liquid drops were visibly seen to form at the open end of each of the hollow fibers."}, "[6]": {"tested_on": "Staphylococcus aureus 16MRSA Xen30", "assay": "Zone of inhibition (modified Kirby-Bauer) of drug-loaded hollow fibers", "assay_type": "cell-based", "procedure": "as §1, §2"}}, "data": [{"molecule": "Cn1c(=O)c2c(ncn2C)n(C)c1=O", "note": "[Caffeine]", "values": [{"measurement": "Dm = 0.25 D", "setting": "[1]", "result": "1.5 × 10^−6"}, {"measurement": "D (cm^2/s) Aqueous", "setting": "[2]", "result": "4.9 × 10^−6 cm^2/s"}]}, {"molecule": "O=C(O)c1cn(C2CC2)c2cc(N3CCNCC3)c(F)cc2c1=O", "note": "[ciprofloxacin]", "values": [{"measurement": "challenges over which a zone of inhibition was achieved", "setting": "[3]", "result": "one challenge"}]}, {"molecule": "CO[C@H]1/C=C/O[C@@]2(C)Oc3c(C)c(O)c4c(O)c(c(/C=N/N5CCN(C)CC5)c(O)c4c3C2=O)NC(=O)/C(C)=C\\C=C\\[C@H](C)[C@H](O)[C@@H](C)[C@@H](O)[C@@H](C)[C@H](OC(C)=O)[C@@H]1C", "note": "[rifampicin]", "values": [{"measurement": "solubility in methanol", "setting": "[4]", "result": "at least 50 milligrams/milliliter"}]}, {"molecule": "CN[C@H](CC(C)C)C(=O)N[C@H]1C(=O)N[C@@H](CC(N)=O)C(=O)N[C@H]2C(=O)N[C@H]3C(=O)N[C@H](C(=O)N[C@H](C(=O)O)c4cc(O)cc(O)c4-c4cc3ccc4O)[C@H](O)c3ccc(c(Cl)c3)Oc3cc2cc(c3O[C@@H]2O[C@H](CO)[C@@H](O)[C@H](O)[C@H]2O[C@H]2C[C@](C)(N)[C@H](O)[C@H](C)O2)Oc2ccc(cc2Cl)[C@H]1O", "note": "[vancomycin]", "values": [{"measurement": "concentration of saturated solution", "setting": "[5]", "result": 100000, "unit": "µg/mL"}, {"measurement": "period over which a zone of inhibition was achieved", "setting": "[6]; drug-loaded polypropylene hollow fibers (saturated solution), repeated challenges on fresh lawns", "result": 2, "unit": "days"}, {"measurement": "activity on the second challenge", "setting": "[6]; fiber moved to a fresh plate and re-challenged", "result": "showed activity"}]}, {"molecule": "Insulin", "values": [{"measurement": "Dm = 0.25 D", "setting": "[1]", "result": "2.5 × 10^−7"}, {"measurement": "D (cm^2/s) Aqueous", "setting": "[2]", "result": "8.3 × 10^−7 cm^2/s"}]}]}
